Here are results for 1 compound from patent US10455849B2, “Method for the preparation of a protein peptide, a protein peptide and use thereof” (INFINITUS (CHINA) COMPANY LTD., priority 2015, dated 2019).

Structures are written as SMILES. Marks after values point to notes of the source that are not given here.

In assay [1] the test system is rats having hyperuricemia induced by potassium oxonate. The experiment in a line: Serum creatinine content of rats having hyperuricemia induced by potassium oxonate (picric acid method). It counts as in vivo, rat. The settings on record: administration for 30 d, extracts 200 mg·kg^−1, allopurinol 50 mg·kg^−1, intragastric, x ± s. From the text: (§1) 180 SD rats (SPF grade, male, 200±20 (g)) were provided by Laboratory Animals Centre, Guangzhou University of Chinese Medicine (License Number: SCXK(Yue)2013-0020). Reagents: allopurinol tablets (Guangdong P.D. Pharmaceutical Co., Ltd., Production batch No. 20130302); potassium oxonate (Shandong Zhongke Taidou Chemical Co., Ltd., Batch No. 120901); sodium carboxymethyl cellulose (Shanghai Celluloid Factory, Product Standard No. GB2760); uric acid assay kit (NanJing Jiancheng Bioengineering Institute, Production batch No. 20130529).
(§2) Animal grouping and modeling: 165 normal healthy SD male rats were obtained and randomly divided into normal control group (15 rats) and model group (150 rats). […] Those rats having a uric acid content of greater than 110 μmol·L^−1 were determined to be successful models. […] On 10th and 20th day after treatment with the above-described peptide samples, 50 min after the last administration, the rats were anaesthetized with 3% pentobarbitol sodium (i.p., 30 mg·kg^−1), and the blood (0.5 ml) was collected from conjunctiva and the serum uric acid content was determined. On 30th day after treatment with antigout peptides, the rats were anaesthetized with 3% pentobarbitol sodium, and 5 ml of blood was collected from coeliac artery and the content of serum creatinine and urea nitrogen were determined at the same time in addition to the serum uric acid content. […]

For assay [2] the test system is unchanged. Description: Serum uric acid content of rats having hyperuricemia induced by potassium oxonate (tungstic acid method). It counts as in vivo, rat. The settings on record: allopurinol group 50 mg·kg^−1; p<0.01; day not given.
Text: as §1, §2

As for `Oc1ncnc2[nH]ncc12` [Allopurinol, allopurinol], the “Creatinine (μmol/L)” value in assay [1] is given as 52.9 ± 10.8^b μmol/L. Besides, the “Effect on serum uric acid content versus model group (in words)” value in assay [2] was “very significant effect in the reduction of the serum uric acid”.
